# Data reported in patent US20260232668A1 (Kadmon Corporation, LLC, priority 2023, published 2026).
# Entries after “also recorded” stand apart in the source; their conditions may differ. Like-named read-outs stand apart in the source and are kept apart here.
# Key:
# [1] = tested on: murine model of sclerodermatous chronic graft-versus-host disease (GVHD); settings: for survival: PO Days 21-55: belumosudil 125 mg/kg Days 21-32 then 100 mg/kg, ibrutinib 20 mg/kg, rilzabrutinib 40 mg/kg BID, vehicle 91.7%
# [2] = cited from earlier work
# [3] = tested on: B cells (CD20+) in human whole blood; assay: anti-CD79b-mediated B-cell activation in human whole blood (CD69 on CD20+ B cells, flow cytometry); assay type: cell-based; settings: anti-CD79b stimulation
# Procedure: Flow cytometric analyses were conducted using BD LSRFortessa™ Cell Analyzer (BD Biosciences) and the data analyzed by FlowJo (BD Biosciences). B-cell activation is determined by an increase in surface expression of activation marker CD69 on B cells (CD20+) following anti-CD79b stimulation. The experiment was conducted in duplicate.
# [4] = tested on: sclerodermatous chronic GVHD model; assay: Example 2: mouse model of sclerodermatous chronic GVHD, single agents; assay type: in vivo
# Procedure: Animals were not replaced during the course of the study. Mice were handled in accordance with standard conventional procedures. Animals were acclimatized for a minimum of 3 days prior to study commencement. […] The study was performed in animal rooms provided with filtered air at a temperature of 70±5° F. and 50% 20% relative humidity and an automatic timer for a light/dark cycle of 12 hours on and 12 hours off with no twilight.
# On Day 0, a combination of bone marrow cells and splenocytes were transferred from donor LP/J mice to the recipients, as indicated in Table 2. […] The BM cells were isolated using standard flushing practices. […] All animals were monitored daily, and weight, survival, and disease progression were recorded following the scoring system described in Table 4.
# On Day 20, animals were redistributed into groups so that the average scGVHD score was similar across all groups. Treatment was initiated on Day 21 and continued until Day 55. All dosing was performed BID to control for stress associated with oral gavage. […] On Days 33, 36, 39, 42, and 45, all animals were photographed under isoflurane anesthesia to assess disease severity.
# [5] = tested on: murine model of sclerodermatous chronic graft-versus-host disease (GVHD); assay: Example 4: murine model of sclerodermatous chronic GVHD, ibrutinib and rilzabrutinib; assay type: in vivo, mouse; settings: for animals that did not display progressive disease by Day 56 (standard GVHD scale): vehicle 9%; for lung sum and individual component histopathology scores vs vehicle: ibrutinib 12.5 and 25 mg/kg (Groups 4, 5), rilzabrutinib 20 and 40 mg/kg (Groups 6, 7), not statistically significant
# Text: Animals were acclimatized for at least three days prior to study commencement.
# Sclerodermatous chronic GVHD was induced in C57Bl/6 (CD45.1) mice using a single acute dose of 8.5 Gy of TBI on Day −1. […] The BM cells were isolated using standard flushing practices. […] Additionally, following TBI on Day −1 and up to Day 8, all animals were given supplemental high calorie highly palatable food in a dish on the bottom of the cage. Following transfer on Day 0, and then again as needed, all animals were given 1 mL/animal/day of supplemental fluids (warmed ringers solution) via subcutaneous injection. An additional 1 mL fluid may have been given in the pm on an as needed basis.
# Ibrutinib. Ibrutinib was formulated with vehicle (0.5% MC).
# Animals were treated twice daily on Days 21-55.
# Animals in Groups 4 and 5 were administered ibrutinib for the first/AM dose and vehicle for the last/PM dose each day of dosing.
# The modified GVHD score for scGVHD was based on 5 criteria: percentage of weight change (0-4), posture (hunching) (0-3), activity (0-3), fur texture (0-4), and skin integrity (0-4) (maximum index=18). […] Animals that appeared to be in pain were administered buprenorphine BID, as needed.
# Progression-free survival was defined as an increase in GVHD Score of […] in comparison to Day 21 GVHD Score (standard or modified).
# Fixed lung and skin samples were embedded in paraffin, sectioned at 5 microns, and slides stained with hematoxylin and eosin (H&E). One slide per block was sectioned and stained with hematoxylin and eosin (H&E). All slides were evaluated and scored with light microscopy by a board-certified veterinary pathologist.
# Parametric data (weight change) were evaluated using one-way ANOVA with Dunnett's multiple comparisons test to compare all groups to the vehicle control group. Non-parametric data (GVHD scores) were analyzed with Kruskal-Wallis with Dunn's post-hoc test. All statistical analyses were performed using GraphPad Prism 8.4.3 Software (La Jolla, CA). Statistical significance was achieved when p<0.05.
# Skin and Lung Histopathology. […] One slide per block was sectioned and stained with H&E. All slides were evaluated and scored with light microscopy by a board-certified veterinary pathologist. […] Lung range: 0-10; skin range: 0-30.
# Dermal Thickness Measurements. Using H&E-stained slides, the dermis was measured (μm) in five areas across the tissue, with a mean calculated for each sample. Measurements were performed from epidermal basement membrane to the most superficial border of dermal collagen with subcuticular adipose. These measurements were only performed in areas of non-tangentially sectioned tissue, free of histologic artifacts, and with an intact epidermis.
# Statistical Analysis. Data are presented as mean±standard error of the mean (SEM). Semi-quantitative sum and component histopathology scores were analyzed (GraphPad Prism) by non-parametric ANOVA (Kruskal-Wallis H test) with Dunn's multiple comparison post-hoc tests; dermal measurements were analyzed by one-way ANOVA with post-hoc Tukey tests as appropriate. Significance was set at p<0.05 for all tests.
# [6] = dose groups not distinguished in the legend
compound,measurement,setting,value
"CC(C)NC(=O)COc1cccc(-c2nc(Nc3ccc4[nH]ncc4c3)c3ccccc3n2)c1 [belumosudil, 2-{3-[4-(1H-indazol-5-ylamino)-2-quinazolinyl]phenoxy}-N-(propan-2-yl) acetamide]",survival,[1],80%
same,belumosudil exposure,[2]; coadministration with proton pump inhibitors,decreases belumosudil exposure
same,belumosudil exposure,[2]; coadministration with strong CYP3A inducers,decreases belumosudil exposure
same,activated B cells (CD69 positive),"[3]; 10 μM compound, whole blood, anti-CD79b alone 73.4%",82.4%
same,inhibition of B-cell activation in whole blood (dose-response graph),[3]; 10 μM to 0.00017 μM,did not inhibit
"C=CC(=O)N1CCC[C@@H](n2nc(-c3ccc(Oc4ccccc4)cc3)c3c(N)ncnc32)C1 [ibrutinib, 1-[(3R)-3-[4-amino-3-(4-phenoxyphenyl)-1H-pyrazolo[3,4-d]pyrimidin-1-yl]-1-piperidinyl]-2-propen-1-one, reference compound]",GVHD scores,"[4]; ibrutinib 25 mg/kg PO AM dose, Days 21-55, vs vehicle",numerical reduction in GVHD scores
same,body weight change (AUC Day 0-56) vs vehicle,[5]; 12.5 mg/kg (Group 4),notably more weight gain
same,"body weight change, death weight carried, vs vehicle",[5]; 12.5 mg/kg (Group 4),trend of increased weight gain
same,animals that did not display progressive disease by Day 56 (standard GVHD scale),[5]; 12.5 mg/kg (Group 4),10%
same,survival,"[5]; 12.5 mg/kg PO AM dose, Days 21-55 (Group 4), to Day 56",survived until the end of the study
same,modified GVHD score (AUC) vs vehicle,[5]; 25 mg/kg (Group 5),notably lower modified GVHD scores
same,"modified GVHD score, death score carried: trend of lowered scores vs vehicle",[5]; 25 mg/kg (Group 5),dampened after adjusting for survivor bias
same,skin sum histopathology score vs vehicle,[5]; 25 mg/kg (Group 5),lowered sum scores
same,standard GVHD score (AUC) vs vehicle,[5]; 25 mg/kg (Group 5),notably lower standard GVHD scores
same,"standard GVHD score, death score carried: trend of lowered scores vs vehicle",[5]; 25 mg/kg (Group 5),dampened after adjusting for survivor bias
same,dermal fibrosis score vs vehicle,"[5]; 25 mg/kg (Group 5), p=0.02",statistically lowered dermal fibrosis scores
same,animals that did not display progressive disease by Day 56 (standard GVHD scale),[5]; 25 mg/kg (Group 5),40%
same,survival,"[5]; 25 mg/kg PO AM dose, Days 21-55 (Group 5), vehicle 82%",90%
same,skin sum histopathology score (FIG. 10A legend),[5]; [6],Slightly lowered sum scores
same,lung sum and individual component histopathology scores vs vehicle,[5]; listed as ibrunitib,Small reductions; also recorded: slight reductions in sum histopathology scores
same,survival,[1],90%
"CC(C)(C=C(C#N)C(=O)N1CCC[C@@H](n2nc(-c3ccc(Oc4ccccc4)cc3F)c3c(N)ncnc32)C1)N1CCN(C2COC2)CC1 [rilzabrutinib, (R)-2-[3-[4-amino-3-(2-fluoro-4-phenoxy-phenyl)pyrazolo[3,4-d]pyrimidin-1-yl]piperidine-1-carbonyl]-4-methyl-4-[4-(oxetan-3-yl)piperazin-1-yl]pent-2-enenitrile]","disease severity (GVHD scores, total GVHD burden AUC)","[4]; rilzabrutinib 20 and 40 mg/kg BID PO, Days 21-55","dose-dependent, with a greater reduction in disease severity observed at the higher 40 mg/kg dose"
same,body weight change (AUC Day 0-56) vs vehicle,[5]; 20 mg/kg BID (Group 6),notably more weight gain
same,"body weight change, death weight carried, vs vehicle",[5]; 20 mg/kg BID (Group 6),trend of increased weight gain
same,modified GVHD score (AUC) vs vehicle,[5]; 20 mg/kg BID (Group 6),notably lower modified GVHD scores
same,"modified GVHD score, death score carried: trend of lowered scores vs vehicle",[5]; 20 mg/kg BID (Group 6),dampened after adjusting for survivor bias
same,standard GVHD score (AUC) vs vehicle,[5]; 20 mg/kg BID (Group 6),notably lower standard GVHD scores
same,"standard GVHD score, death score carried: trend of lowered scores vs vehicle",[5]; 20 mg/kg BID (Group 6),dampened after adjusting for survivor bias
same,dermal thickness (H&E),"[5]; 20 mg/kg BID (Group 6), among-group p=0.3",small reduction in mean thickness
same,animals that did not display progressive disease by Day 56 (standard GVHD scale),[5]; 20 mg/kg BID (Group 6),30%
same,survival,"[5]; 20 mg/kg BID PO, Days 21-55 (Group 6), vehicle 82%",80%
same,modified GVHD score (AUC) vs vehicle,[5]; 40 mg/kg BID (Group 7),notably lower modified GVHD scores
same,"modified GVHD score, death score carried: trend of lowered scores vs vehicle",[5]; 40 mg/kg BID (Group 7),dampened after adjusting for survivor bias
same,standard GVHD score (AUC) vs vehicle,[5]; 40 mg/kg BID (Group 7),notably lower standard GVHD scores
same,"standard GVHD score, death score carried: trend of lowered scores vs vehicle",[5]; 40 mg/kg BID (Group 7),dampened after adjusting for survivor bias
same,dermal fibrosis score vs vehicle,"[5]; 40 mg/kg BID (Group 7), p=0.09",statistical trend toward lowered scores
same,animals that did not display progressive disease by Day 56 (standard GVHD scale),[5]; 40 mg/kg BID (Group 7),10%
same,survival,"[5]; 40 mg/kg BID PO, Days 21-55 (Group 7), vehicle 82%",90%
same,dermal thickness (FIG. 11 legend),[5]; [6],slight reduction in dermal thickness
same,skin sum histopathology score (FIG. 10A legend),[5]; [6],Slightly lowered sum scores
same,skin sum histopathology score vs vehicle,"[5]; either dose, 20 and 40 mg/kg BID (Groups 6 and 7)",lowered sum scores
same,lung sum and individual component histopathology scores vs vehicle,[5],Small reductions
same,lung sum and individual component histopathology scores vs vehicle,[5]; listed as rilzabrunitib,slight reductions in sum histopathology scores
same,"standard GVHD score, death score carried, vs vehicle","[1]; Groups 4-8, rilzabrutinib 40 mg/kg BID (Group 6)",trend of lower standard GVHD scores
same,survival,[1],survived to the conclusion of the study
same,IC50,"[3]; Homo sapiens, B-cell, dose-response 10 μM to 0.00017 μM, read-out: IC50 of inhibition of B-cell activation in whole blood",9.5 nM
